As usually defined, the pIC50 is −log10 of the IC50, conventionally taken in molar units.

This is an account of results in patent EP1242382B1, “TRICYCLIC PROTEIN KINASE INHIBITORS” (Wyeth, priority 1999, dated 2001).

Common to all, as to format: biochemical
In experiment [1] the target is Mitogen Activated Protein Kinase (Mek-Erk) (Homo sapiens, UniProt P28482+Q02750). The experiment is described as follows: Mitogen Activated Protein Kinase (MAPK) two component coupled test procedure.
Protocol: To evaluate inhibitors of the MAP (mitogen activated protein) kinase a two component coupled standard pharmacological test procedure, which measures phosphorylation of a serine/threonine residue in an appropriate sequence in the substrate in the presence and absence of a putative inhibitor, is used. Recombinant human MEK 1 (MAPKK) is first used to activate recombinant human ERK2 (MAPK) and the activated MAPK (ERK) is incubated with substrate (myelin basic protein peptide (MBPP) or Myc peptide) in the presence of ATP, Mg^+2 and radiolabeled ^33P ATP. The phosphorylated peptide is captured on a P 81 phosphocellulose filter (paper filter or embedded in microtiter plate) washed and counted by scintillation methods.
The peptide substrates used in the assay are MBPP, peptide substrate ([sequence]), or synthetic Myc substrate, ([sequence]•5 TFA). The recombinant enzymes used are prepared as GST fusion proteins of human ERK 2 and human MEK 1. […]
The reaction is run as follows in 50 mM Tris kinase buffer, pH 7.4 in a reaction volume of 50 ul. […] The filters are briefly air dried before addition of scintillant and samples are counted in the appropriate scintillation counter set up for reading ^33P isotope.
The raw data is captured as cpm. […] Mean cpm data is tabulated by group and % inhibition by a test compound is calculated as (corrected cpm control-corrected. cpm sample/control) X 100 = % inhibition).
Experiment [2] has as its target T1, Kinase insert Domain containing Receptor (KDR; the catalytic domain of the VEGF receptor) (Homo sapiens, UniProt P35968).
T1 construct: KDR; the catalytic domain of the VEGF receptor
The experiment is described as follows: Inhibition of Kinase insert Domain containing Receptor (KDR). The following applies: read-out: KDR %Inh (10 µM). The protocol:
KDR protein is mixed, in the presence or absence of a inhibitor compound, with a substrate peptide to be phosphorylated (a copolymer of glutamic acid and tyrosine, E:Y :: 4:1) and other cofactors such as Mg^++ and sodium vanadate (a protein tyrosine phosphatase inhibitor) in an appropriate buffer to maintain pH (7.2). ATP and a radioactive tracer (either P^32- or P^33-labeled ATP) is then added to initiate phosphorylation. After incubation, the radioactive phosphate associated with the acid-insoluble fraction of the test procedure mixture is then quantified as reflection of substrate phosphorylation.

For a further experiment, the target named is T2, p60^c-src (Src) (Homo sapiens, UniProt P12931).
T2 construct: purchased Upstate Biotechnologies
The experiment is described as follows: Src kinase test procedure (Elisa format). The conditions noted are these: dose 10 µM; read-out: Src %Inh. The protocol: Inhibitors of p60^c-src (partially purified preparation purchased from Upstate Biotechnologies) tyrosine kinase activity are analyzed in an Elisa format. […] HRP-conjugated anti-phosphotyrosine is used to detect phosphorylated peptide via a color reaction. Conditions recommended by the manufacturer are employed.
Reaction conditions: Five microliter aliquots of each compound prepared fresh at the time of the assay are added as a solution in 10mM HEPES pH 7.5, 10% DMSO to the reaction well. Thirty-five microliters of reaction mix containing Src, buffer and peptide/bovine serum albumin mix are added to the compound wells and incubated at 30°C for 10 minutes (reaction buffer: 50mM TrisHCl pH 7.5, 10mM MgCl2, 0.1mM EGTA, 0.5mM Na3VO4). The reaction is started by addition of 10 microliters of ATP, incubated at 30°C for 1 hour, and stopped by addition of 20 microliters of 0.5M EDTA. The reaction mixture with the phosphorylated peptide is then transferred to a streptavidin-coated microtiter plate (provided in the kit) and allowed to bind for 20 minutes. Unbound peptide and reaction mixture is decanted and the plate is washed with PBS six times. Horseradish peroxidase-conjugated phosphotyrosine antibody supplied in the kit is incubated with the plate for one hour, then decanted. The plate is again washed with PBS six times.

pIC50: −log10 of the molar value.

Chain of Mitogen Activated Protein Kinase (Mek-Erk) (Q02750 whole entry, the tested form may be a part): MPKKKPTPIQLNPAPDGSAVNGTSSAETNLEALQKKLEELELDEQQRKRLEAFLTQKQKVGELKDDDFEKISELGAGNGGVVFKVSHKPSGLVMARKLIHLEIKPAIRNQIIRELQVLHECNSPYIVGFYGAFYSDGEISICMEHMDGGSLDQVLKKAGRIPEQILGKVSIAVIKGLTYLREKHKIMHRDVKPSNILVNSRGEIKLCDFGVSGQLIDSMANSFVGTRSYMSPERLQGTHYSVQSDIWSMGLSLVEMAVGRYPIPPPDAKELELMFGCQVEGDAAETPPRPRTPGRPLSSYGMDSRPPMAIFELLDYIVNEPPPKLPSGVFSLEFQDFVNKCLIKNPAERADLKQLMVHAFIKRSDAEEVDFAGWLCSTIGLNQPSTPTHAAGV
Chain of Mitogen Activated Protein Kinase (Mek-Erk) (P28482 2-360): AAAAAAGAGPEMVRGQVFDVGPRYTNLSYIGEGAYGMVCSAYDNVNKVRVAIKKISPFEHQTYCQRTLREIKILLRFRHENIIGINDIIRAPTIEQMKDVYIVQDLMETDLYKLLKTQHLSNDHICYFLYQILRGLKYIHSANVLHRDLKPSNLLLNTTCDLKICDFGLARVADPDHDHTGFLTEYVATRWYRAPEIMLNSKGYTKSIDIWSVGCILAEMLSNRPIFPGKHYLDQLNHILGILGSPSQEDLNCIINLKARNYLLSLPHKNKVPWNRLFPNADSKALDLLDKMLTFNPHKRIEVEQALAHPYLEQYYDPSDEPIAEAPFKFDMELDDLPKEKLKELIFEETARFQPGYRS
T1 sequence (P35968 834-1162 limits assumed): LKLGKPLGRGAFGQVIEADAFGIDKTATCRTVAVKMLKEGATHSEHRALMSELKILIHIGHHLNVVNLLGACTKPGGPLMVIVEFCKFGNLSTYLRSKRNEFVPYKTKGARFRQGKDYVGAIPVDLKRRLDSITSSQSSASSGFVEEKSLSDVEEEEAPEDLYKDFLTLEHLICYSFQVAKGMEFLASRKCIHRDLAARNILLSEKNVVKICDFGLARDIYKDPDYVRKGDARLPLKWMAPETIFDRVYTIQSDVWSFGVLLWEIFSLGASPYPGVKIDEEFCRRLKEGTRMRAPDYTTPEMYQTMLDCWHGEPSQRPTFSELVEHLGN
T2 sequence (P12931 whole entry): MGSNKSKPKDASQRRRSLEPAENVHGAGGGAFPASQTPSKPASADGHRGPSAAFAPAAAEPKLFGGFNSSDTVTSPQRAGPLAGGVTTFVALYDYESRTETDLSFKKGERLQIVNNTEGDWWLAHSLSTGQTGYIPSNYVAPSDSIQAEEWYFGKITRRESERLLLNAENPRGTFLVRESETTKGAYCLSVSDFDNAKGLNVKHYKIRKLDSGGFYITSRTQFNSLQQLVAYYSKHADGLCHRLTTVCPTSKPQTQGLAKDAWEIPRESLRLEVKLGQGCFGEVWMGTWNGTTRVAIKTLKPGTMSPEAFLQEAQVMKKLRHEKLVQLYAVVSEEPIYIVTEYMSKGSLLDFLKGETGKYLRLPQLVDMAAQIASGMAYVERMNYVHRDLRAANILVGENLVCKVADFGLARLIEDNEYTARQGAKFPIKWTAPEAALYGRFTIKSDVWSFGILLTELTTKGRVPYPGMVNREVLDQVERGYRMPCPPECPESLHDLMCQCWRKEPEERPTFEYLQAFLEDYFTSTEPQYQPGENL

In experiment [1], `N#Cc1cnc2cc3c(cc2c1Nc1ccc(Oc2ccccc2)cc1)ncn3CCN1CCOCC1` [Example 58, 3-[2-(4-Morpholinyl)ethyl]-8-(4-phenoxyanilino)-3H-imidazo[4,5-g]quinoline-7-carbonitrile] gave a pIC50 of less than 5.00. In the case of `Cc1ccc(Nc2c(C#N)cnc3c2oc2ccccc23)cc1O` [Example 87, 4-(3-Hydroxy-4-methylphenylamino)benzo[4,5]furo[3,2-b]pyridine-3-carbonitrile], the results for the inhibition at 10 µM (in experiment [2]; at p60^c-src (Src)) were 32% and 0%, respectively. On to `N#Cc1cnc2c(oc3ccccc32)c1Nc1ccc(Oc2ccccc2)cc1` [Example 88, 4-(4-Phenoxyphenylamino)benzo[4,5]furo[3,2-b]pyridine-3-carbonitrile], for which the pIC50 in experiment [1] was less than 4.00.
